Source: patent publication US11780832B2, “Lactivicin compounds, their preparation and use as antibacterial agents” (priority 2021, dated 2023)
Read-outs that look alike come from different tables or passages of the source.

How the values were obtained:
Type in all cases: cell-based
[1] = test system: Klebsiella pneumoniae CMY-DHA; experiment: MIC against CMY-DHA producing strains, compound alone; conditions: row r32
Experimental: (§1) Gram-negative and Gram-positive bacterial strains used during the in vitro minimum inhibitory concentration (MIC) determination were obtained either from the American Type Culture Collection (ATCC) or from clinical specimens. All strains were characterized genotypically and the respective antibiotic resistance markers for each strain were identified.
(§2) Isolates were sub-cultured onto appropriate media and stocked in skim milk at −80° C. Following two subcultures from frozen stock, in vitro antimicrobial susceptibility testing was performed using the Clinical and Laboratory Standards Institute (CLSI) broth microdilution method. Briefly, fresh cultures were suspended in culture media to give a final stock inoculum size of 5×10^7 colony forming units per milliliter of broth (CFU/mL). Test compounds were prepared at a stock solution concentration equal to 128 μg/mL, then diluted to give a final an initial working concentration of 32 μg/mL. 100 μL of the stock solutions were added to the first wells in a 96-well plate and were then diluted using a 2-fold dilution method to give a range of 32-0.025 μg/mL. 100 μL of the bacterial suspensions were then added to the 96-well plates to give a final working inoculum size of 5×10^5 CFU/mL. The final compound concentration range was 16-0.0125 μg/mL. […] MICs for comparator agents were determined using custom-designed, in-house prepared 96-well broth microdilution panels.

[2] = test system: Proteus mirabilis CMY-DHA; experiment: as above; conditions: row r36
Experimental: as §1, §2

Escherichia coli CMY-DHA [3] = experiment: as above
Experimental: as §1, §2

[4] = test system: Klebsiella pneumoniae CMY-DHA; experiment: Synergistic activity: MIC in the presence of Avibactam; conditions: row r32, in the presence of Avibactam @ 4 μg/mL
Experimental: as §2
(§3) The same method used to test the activity of the claimed compounds was used to determine their synergistic activity when combined with a β-lactamase inhibitor except that either a fixed concentration or fixed ratio of a β-lactamase inhibitor was added to the 96-well plates prior to adding the bacteria cultures. Synergistic activity was defined as the reduction of MIC of a given compound when tested using the β-lactamase inhibitor versus testing the compound in the absence of a β-lactamase inhibitor.

[5] = test system: Escherichia coli Elevated AmpC; experiment: as above
Experimental: as §2, §3

Escherichia coli CMY-DHA [6] = experiment: as above
Experimental: as §2, §3

[7] = test system: Klebsiella pneumoniae OXA-163, OXA-1_OXA-30, SHV-1, TEM-1; experiment: MIC, CLSI broth microdilution
Summary of the method: (§4)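 CLSI broth microdilution; 2-fold compound series, final 16-0.0125 μg/mL; final inoculum 5×10^5 CFU/mL. Strains genotyped for resistance markers, passaged twice from frozen stock before testing.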

[8] = test system: Pseudomonas aeruginosa AmpC overexpressed; experiment: MIC, CLSI broth microdilution
Summary of the method: as §4

[9] = test system: Escherichia coli CTX-M-15; experiment: MIC, CLSI broth microdilution; conditions: CTXM15
Summary of the method: (§5)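 Frozen stocks (−80 °C, skim milk) were subcultured twice. Fresh cultures were suspended in broth and added to 2-fold compound dilutions to a working inoculum of 5×10^5 CFU/mL. Final test concentrations spanned 16-0.0125 μg/mL, following the CLSI microdilution method.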

[10] = test system: Escherichia coli ATCC 25922; experiment: MIC, CLSI broth microdilution; conditions: ATCC25922
Summary of the method: as §5

[11] = test system: Klebsiella oxytoca KPC-2, TEM-1; experiment: MIC, CLSI broth microdilution
Summary of the method: as §5

Escherichia coli SHV-12 = experiment: MIC, CLSI broth microdilution; conditions: SHV12
Summary of the method: as §5

[12] = test system: Enterobacter cloacae species complex NDM-1; experiment: MIC, CLSI broth microdilution
Summary of the method: as §5

[13] = test system: Pseudomonas aeruginosa OprD negative; experiment: MIC, CLSI broth microdilution
Summary of the method: as §4

[14] = test system: Klebsiella pneumoniae KPC-2; experiment: MIC, CLSI broth microdilution; conditions: KPC2
Summary of the method: as §5

[15] = test system: Klebsiella pneumoniae KPC-3; experiment: MIC, CLSI broth microdilution
Summary of the method: as §5

[16] = test system: Klebsiella pneumoniae SHV-12; experiment: MIC, CLSI broth microdilution
Summary of the method: as §5

[17] = test system: Citrobacter freundii species complex OXA-181; experiment: MIC, CLSI broth microdilution
Summary of the method: as §5

[18] = test system: Klebsiella pneumoniae OXA-48, SHV-1; experiment: MIC, CLSI broth microdilution
Summary of the method: as §4

[19] = test system: Acinetobacter baumannii ATCC 19606; experiment: MIC, CLSI broth microdilution; conditions: ATCC19606
Summary of the method: as §5

Escherichia coli CMY-2 = experiment: MIC, CLSI broth microdilution; conditions: CMY2
Summary of the method: as §5

[20] = test system: Klebsiella aerogenes VIM-1, SHV-12; experiment: MIC, CLSI broth microdilution
Summary of the method: as §5

[21] = test system: Pseudomonas aeruginosa ATCC 27853; experiment: MIC, CLSI broth microdilution; conditions: ATCC27853
Summary of the method: as §5

[22] = test system: Serratia marcescens SME-2; experiment: MIC, CLSI broth microdilution; conditions: SME2
Summary of the method: as §5

[23] = test system: Serratia marcescens AmpC overexpressed; experiment: MIC, CLSI broth microdilution
Summary of the method: as §4

[24] = strain of row r10, in the presence of Avibactam @ 4 μg/mL
[25] = strain of row r11, in the presence of Avibactam @ 4 μg/mL
[26] = strain of row r12, in the presence of Avibactam @ 4 μg/mL
[27] = strain of row r13, in the presence of Avibactam @ 4 μg/mL
[28] = strain of row r14, in the presence of Avibactam @ 4 μg/mL
[29] = strain of row r15, in the presence of Avibactam @ 4 μg/mL
[30] = strain of row r26, in the presence of Avibactam @ 4 μg/mL
[31] = strain of row r27, in the presence of Avibactam @ 4 μg/mL
[32] = strain of row r28, in the presence of Avibactam @ 4 μg/mL
[33] = strain of row r29, in the presence of Avibactam @ 4 μg/mL
[34] = strain of row r30, in the presence of Avibactam @ 4 μg/mL
[35] = strain of row r31, in the presence of Avibactam @ 4 μg/mL
[36] = strain of row r34, in the presence of Avibactam @ 4 μg/mL
[37] = strain of row r35, in the presence of Avibactam @ 4 μg/mL
[38] = Citrobacter freundii species complex, OXA-181, read-out: MIC

Measured: MIC

Nc1nc(/C(=N/OC2(C(=O)O)CCOCC2)C(=O)N[C@H]2CON(C3(C(=O)O)C[C@H](N4C(=O)c5cc(O)c(O)nc5C4=O)C(=O)O3)C2=O)cs1 (stereo partly drawn) [Cmpd 26, 4-({(Z)-[1-(2-amino-1,3-thiazol-4-yl)-2-({(4S)-2-[(4S)-2-carboxy-4-(2,3-dihydroxy-5,7-dioxo-5,7-dihydro-6H-pyrrolo[3,4-b]pyridin-6-yl)-5-oxooxolan-2-yl]-3-oxo-1,2-oxazolidin-4-yl}amino)-2-oxoethylidene]amino}oxy)oxane-4-carboxylic acid]
0.015 µg/mL: [5]; [24] | [5]; [28]
2 µg/mL: Escherichia coli CMY-DHA [3]; strain of row r26 | Escherichia coli CMY-DHA [3]; strain of row r29 | [12] | [13] | [21]
0.12 µg/mL: [5]; [25] | [5]; [29] | [7] | [15]; KPC3, KPC-3, read-out: MIC
0.5 µg/mL: [4] | Escherichia coli CMY-DHA [6]; [33] | Escherichia coli CMY-DHA [6]; [35] | [10] | [22] | [23]
4 µg/mL: [1] | [2] | [8] | [9] | Escherichia coli SHV-12 | Escherichia coli CMY-2
0.03 µg/mL: Escherichia coli CMY-DHA [6]; [31]
1 µg/mL: Escherichia coli CMY-DHA [3]; strain of row r28 | Escherichia coli CMY-DHA [3]; strain of row r30 | Escherichia coli CMY-DHA [3]; strain of row r34 | Escherichia coli CMY-DHA [3]; strain of row r35 | [19]
0.06 µg/mL: Escherichia coli CMY-DHA [6]; [32] | Escherichia coli CMY-DHA [6]; [36] | Escherichia coli CMY-DHA [6]; [37] | [16]; SHV12, SHV-12, read-out: MIC
<=0.008 μg/mL: [5]; [27] | Escherichia coli CMY-DHA [6]; [34]
0.0149 µg/mL: [11]; KPC-2, TEM-1, read-out: MIC | [14] | [18]
8 µg/mL: Escherichia coli CMY-DHA [3]; strain of row r31
0.25 µg/mL: Escherichia coli CMY-DHA [3]; strain of row r27 | [5]; [26] | Escherichia coli CMY-DHA [6]; [30] | [17]; [38] | [20]

Nc1nc(/C(=N/OC2(C(=O)O)CCOCC2)C(=O)N[C@H]2CON(C3(C(=O)O)C[C@H](N4C(=O)c5cc(O)c(O)cc5C4=O)C(=O)O3)C2=O)cs1 (stereo partly drawn) [Cmpd 8, 4-({(Z)-[1-(2-amino-1,3-thiazol-4-yl)-2-({(4S)-2-[(4S)-2-carboxy-4-(5,6-dihydroxy-1,3-dioxo-1,3-dihydro-2H-isoindol-2-yl)-5-oxooxolan-2-yl]-3-oxo-1,2-oxazolidin-4-yl}amino)-2-oxoethylidene]amino}oxy)oxane-4-carboxylic acid]
0.0149 µg/mL: [11] | [15]; KPC3 | [16]; SHV12 | [17]; Citrobacter freundii | [18]
0.25 µg/mL: Escherichia coli CMY-DHA [3]; strain of row r28 | Escherichia coli CMY-DHA [3]; strain of row r30 | Escherichia coli CMY-DHA [3]; strain of row r35 | [4] | [12]
2 µg/mL: [9] | [20]
0.015 µg/mL: Escherichia coli CMY-DHA [6]; [36]
<=0.008 μg/mL: [5]; [24] | [5]; [27] | [5]; [28] | Escherichia coli CMY-DHA [6]; [31] | Escherichia coli CMY-DHA [6]; [32] | Escherichia coli CMY-DHA [6]; [34] | Escherichia coli CMY-DHA [6]; [37]
0.03 µg/mL: [5]; [25] | [5]; [26] | Escherichia coli CMY-DHA [6]; [30]
0.12 µg/mL: Escherichia coli CMY-DHA [3]; strain of row r34 | [13] | [14] | [19] | [21]
4 µg/mL: [2]
1 µg/mL: [1] | Escherichia coli CMY-DHA [3]; strain of row r26 | Escherichia coli CMY-DHA [3]; strain of row r31 | Escherichia coli SHV-12 | Escherichia coli CMY-2
0.5 µg/mL: Escherichia coli CMY-DHA [3]; strain of row r29 | [8]
0.06 µg/mL: Escherichia coli CMY-DHA [3]; strain of row r27 | [5]; [29] | Escherichia coli CMY-DHA [6]; [33] | Escherichia coli CMY-DHA [6]; [35] | [7] | [10] | [22] | [23]

Nc1nc(/C(=N/OC2(C(=O)O)CC2)C(=O)N[C@H]2CON(C3(C(=O)O)C[C@H](N4C(=O)c5cc(O)c(O)cc5C4=O)C(=O)O3)C2=O)ns1 (stereo partly drawn) [Cmpd 18, (4S)-2-[(4S)-4-{[(2Z)-2-(5-amino-1,2,4-thiadiazol-3-yl)-2-{[(1-carboxycyclopropyl)oxy]imino}acetyl]amino}-3-oxo-1,2-oxazolidin-2-yl]-4-(5,6-dihydroxy-1,3-dioxo-1,3-dihydro-2H-isoindol-2-yl)-5-oxooxolane-2-carboxylic acid]
1 µg/mL: [1] | [2] | Escherichia coli CMY-DHA [3]; strain of row r29 | [8] | [9] | Escherichia coli SHV-12
0.5 µg/mL: Escherichia coli CMY-DHA [3]; strain of row r26 | Escherichia coli CMY-DHA [3]; strain of row r30 | Escherichia coli CMY-DHA [3]; strain of row r34 | Escherichia coli CMY-DHA [3]; strain of row r35 | [12] | [20] | [23]
2 µg/mL: Escherichia coli CMY-DHA [3]; strain of row r31 | Escherichia coli CMY-2
<=0.008 μg/mL: [5]; [24] | [5]; [25] | [5]; [27] | [5]; [28] | Escherichia coli CMY-DHA [6]; [31] | Escherichia coli CMY-DHA [6]; [34]
0.0149 µg/mL: [11]; KPC-2, TEM-1, read-out: MIC | [18]
0.015 µg/mL: Escherichia coli CMY-DHA [6]; [36] | Escherichia coli CMY-DHA [6]; [37]
0.25 µg/mL: Escherichia coli CMY-DHA [3]; strain of row r28 | [4] | [19]
0.03 µg/mL: Escherichia coli CMY-DHA [6]; [30] | Escherichia coli CMY-DHA [6]; [32] | [16]; SHV12, SHV-12, read-out: MIC
0.06 µg/mL: [5]; [26] | [5]; [29] | Escherichia coli CMY-DHA [6]; [33] | Escherichia coli CMY-DHA [6]; [35] | [14] | [15]; KPC3, KPC-3, read-out: MIC | [17]; [38] | [22]
0.12 µg/mL: Escherichia coli CMY-DHA [3]; strain of row r27 | [7] | [10] | [13] | [21]
